Tested on: acetylated microtubule in HEK293T cells
Assay: Microtubule-Stabilizing Activity Assay (acetylated microtubule immunoblot, HEK293T, colchicine challenge)
Type: cell-based
Conditions: 1 h pre-incubation, then colchicine 1 μM 3 h, relative to CNDR-51657 at 500 nM = 1.00; for Microtubule-Stabilizing Activity 50 nM: compound 50 nM; for Microtubule-Stabilizing Activity 500 nM: compound 500 nM
Experimental: Compound solvent: 100% dimethyl sulfoxide (DMSO). Cell line: HEK293T (ATCC, CRL3216). Culture conditions: Cells were cultured in Dulbecco's Modified Eagle's Medium (DMEM) containing 10% fetal bovine serum and 1% penicillin/streptomycin. Cells were cultured at 37° C. in a Thermo-Fisher incubator with a humidified atmosphere of 5% carbon dioxide.
One day prior to the experiment, 100,000 cells were seeded at a density of 200,000 cells/ml in a 24-well plate.
On the day of the experiment, 20 μl of PBS phosphate buffer containing the test compound at experimental concentrations or an equivalent volume of DMSO was added to each well. After incubating at 37° C. for 1 hour, colchicine was added to each well at a final concentration of 1 μM, followed by an additional 3-hour incubation at 37° C. The plate was then placed on ice. The medium in each well was removed, and the cells were washed with ice-cold PBS. After aspirating the PBS, 0.1 mL of ice-cold RIPA lysis buffer (containing 0.5% sodium deoxycholate, 0.1% SDS, 1% NP-40, 5 mM EDTA, pH 8.0) was quickly added. Prior to use, a commercial protease inhibitor cocktail (1:500) and 1 μM deacetylase inhibitor Trichostatin A (Sangon Biotech Co., Ltd.) were added to the cell lysis buffer. The cell lysate were transferred to a 1.5 ml centrifuge tube, sonicated, and centrifuged at 13,000 rpm for 10 minutes. The supernatant was collected, and protein concentration was determined using the BCA assay.
Based on existing literature (Black, 1989; Kurt, 2011), acetylated microtubule was used as an indicator of microtubule polymerization to assess the microtubule-stabilizing efficacy of the compounds. HEK293T cell lysates were analyzed by SDS-PAGE (7.5% gel) and immunoblotted using acetylated microtubule antibody (1:20,000, Sigma-Aldrich, T7451) and α-microtubule antibody (1:2,000, Proteintech, 11224-1-AP). After incubation with fluorescent dye-conjugated IgG (1:40,000, Licor), the blots were visualized using an Odyssey-Dlx imaging system. Grayscale analysis was performed using ImageJ.
The compound activity was quantified with the microtubule-stabilizing activity of CNDR-51657 (C5) (Jane, 2016) at 500 nM as 1.00.

Compound | Microtubule-Stabilizing Activity 50 nM | Microtubule-Stabilizing Activity 500 nM
CC(C)[C@@H](C)Nc1c(-c2c(F)cc(OCC3[C@H]4CN(C)C[C@@H]34)cc2F)c(Cl)nc2ncnn12 (stereo partly drawn) [Example 22, 5-Chloro-6-(2,6-difluoro-4-(((1R,5S,6r)-3-methyl-3-azabicyclo[3.1.0]hex-6-yl)methoxy)phenyl)-N—((R)-3-methylbutan-2-yl)-[1,2,4]triazolo[1,5-a]pyrimidin-7-amine] | 1.88 | 1.61
Cc1nc2ncnn2c(N[C@H](C)C(C)C)c1-c1c(F)cc(OCC2[C@H]3CNC[C@@H]23)cc1F (stereo partly drawn) [Example 23, 6-(4-(((1R,5S,6r)-3-Azabicyclo[3.1.0]hex-6-yl)methoxy)-2,6-difluorophenyl)-5-methyl-N—((R)-3-methylbutan-2-yl)-[1,2,4]triazolo[1,5-a]pyrimidin-7-amine] | 0.80 | 0.99
C[C@@H](Nc1c(-c2c(F)cc(OCC3[C@H]4CNC[C@@H]34)cc2F)c(Cl)nc2ncnn12)C1CCC1 (stereo partly drawn) [Example 26, 6-(4-(((1R,5S,6r)-3-Azabicyclo[3.1.0]hexan-6-yl)methoxy)-2,6-difluorophenyl)-5-chloro-N—((R)-1-cyclobutylethyl)-[1,2,4]triazolo[1,5-a]pyrimidin-7-amine] | 1.35 | 1.41
C[C@@H](Nc1c(-c2c(F)cc(OCC3[C@H]4CN(C)C[C@@H]34)cc2F)c(Cl)nc2ncnn12)C1CCC1 (stereo partly drawn) [Example 27, 5-Chloro-N—((R)-1-cyclobutylethyl)-6-(2,6-difluoro-4-(((1R,5S,6r)-3-methyl-3-azabicyclo[3.1.0]hexan-6-yl)methoxy)phenyl)-[1,2,4]triazolo[1,5-a]pyrimidin-7-amine] | 1.64 | 1.37
Cc1nc2ncnn2c(N[C@H](C)C2CCC2)c1-c1c(F)cc(OCC2[C@H]3CNC[C@@H]23)cc1F (stereo partly drawn) [Example 28, 6-(4-(((1R,5S,6r)-3-Azabicyclo[3.1.0]hexan-6-yl)methoxy)-2,6-difluorophenyl)-5-methyl-N—((R)-1-cyclobutylethyl)-[1,2,4]triazolo[1,5-a]pyrimidin-7-amine] | 1.65 | 1.43
CC(C)[C@@H](C)Nc1c(-c2c(F)cc(OC[C@@H]3[C@@H]4CNC[C@@H]43)cc2F)c(Cl)nc2ncnn12 [Example 29, 6-(4-(((1R,5S,6s)-3-Azabicyclo[3.1.0]hexan-6-yl)methoxy)-2,6-difluorophenyl)-5-chloro-N—((R)-3-methylbutan-2-yl)-[1,2,4]triazolo[1,5-a]pyrimidin-7-amine] | 0.32 | 1.69
CC(C)[C@@H](C)Nc1c(-c2c(F)cc(OC[C@H]3[C@H]4CN(C)C[C@@H]34)cc2F)c(Cl)nc2ncnn12 [Example 30, 5-Chloro-6-(2,6-difluoro-4-(((1R,5S,6s)-3-methyl-3-azabicyclo[3.1.0]hex-6-yl)methoxy)phenyl)-N—((R)-3-methylbutan-2-yl)-[1,2,4]triazolo[1,5-a]pyrimidin-7-amine] | 0.09 | 0.97
C[C@H](Nc1c(-c2c(F)cc(OC[C@@H]3[C@@H]4CNC[C@@H]43)cc2F)c(Cl)nc2ncnn12)C(F)(F)F [Example 31, 6-(4-(((1R,5S,6s)-3-Azabicyclo[3.1.0]hex-6-yl)methoxy)-2,6-difluorophenyl)-5-chloro-N—((S)-1,1,1-trifluoropropan-2-yl)-[1,2,4]triazolo[1,5-a]pyrimidin-7-amine] | 0.35 | 1.25
C[C@H](Nc1c(-c2c(F)cc(OC[C@H]3[C@H]4CN(C)C[C@@H]34)cc2F)c(Cl)nc2ncnn12)C(F)(F)F [Example 32, 5-Chloro-6-(2,6-difluoro-4-(((1R,5S,6s)-3-methyl-3-azabicyclo[3.1.0]hexan-6-yl)methoxy)phenyl)-N—((S)-1,1,1-trifluoropropan-2-yl)-[1,2,4]triazolo[1,5-a]pyrimidin-7-amine] | 0.07 | 2.51
Fc1cc(OC[C@H]2[C@@H]3CNC[C@@H]32)cc(F)c1-c1c(Cl)nc2ncnn2c1NCC(F)(F)F [Example 33, 6-(4-(((1R,5S,6r)-3-azabicyclo[3.1.0]hexan-6-yl)methoxy)-2,6-difluorophenyl)-5-chloro-N-(2,2,2-trifluoroethyl)-[1,2,4]triazolo[1,5-a]pyrimidin-7-amine] | 1.46 | 1.64
CN1C[C@@H]2[C@@H](COc3cc(F)c(-c4c(Cl)nc5ncnn5c4NCC(F)(F)F)c(F)c3)[C@@H]2C1 [Example 34, 5-Chloro-6-(2,6-difluoro-4-(((1R,5S,6r)-3-methyl-3-azabicyclo[3.1.0]hexan-6-yl)methoxy)phenyl)-N-(2,2,2-trifluoroethyl)-[1,2,4]triazolo[1,5-a]pyrimidin-7-amine] | 1.05 | 2.10
CC(C)[C@@H](C)Nc1c(-c2c(F)cc(O[C@H]3C[C@H]4CNC[C@H]4C3)cc2F)c(Cl)nc2ncnn12 [Example 36, 5-Chloro-6-(2,6-difluoro-4-(((3aR,5r,6aS)-octahydrocyclopenta[c]pyrrol-5-yl)oxy)phenyl)-N—((R)-3-methylbutan-2-yl)-[1,2,4]triazolo[1,5-a]pyrimidin-7-amine] | 0.47 | 0.37
CC(C)[C@@H](C)Nc1c(-c2c(F)cc(O[C@@H]3C[C@@H]4CN(C)C[C@@H]4C3)cc2F)c(Cl)nc2ncnn12 [Example 37, 5-Chloro-6-(2,6-difluoro-4-(((3aR,5r,6aS)-2-methyloctahydrocyclopenta[c]pyrrol-5-yl)oxy)phenyl)-N—((R)-3-methylbutan-2-yl)-[1,2,4]triazolo[1,5-a]pyrimidin-7-amine] | 0.16 | 0.17
C[C@H](Nc1c(-c2c(F)cc(O[C@H]3C[C@H]4CNC[C@H]4C3)cc2F)c(Cl)nc2ncnn12)C(F)(F)F [Example 38, 5-Chloro-6-(2,6-difluoro-4-(((3aR,5r,6aS)-octahydrocyclopenta[c]pyrrol-5-yl)oxy)phenyl)-N—((S)-1,1,1-trifluoropropan-2-yl)-[1,2,4]triazolo[1,5-a]pyrimidin-7-amine] | 0.31 | 0.95
C[C@H](Nc1c(-c2c(F)cc(O[C@@H]3C[C@@H]4CN(C)C[C@@H]4C3)cc2F)c(Cl)nc2ncnn12)C(F)(F)F [Example 39, 5-Chloro-6-(2,6-difluoro-4-(((3aR,5r,6aS)-2-methyloctahydrocyclopenta[c]pyrrol-5-yl)oxy)phenyl)-N—((S)-1,1,1-trifluoropropan-2-yl)-[1,2,4]triazolo[1,5-a]pyrimidin-7-amine] | 0.29 | 0.45
CC(C)[C@@H](C)Nc1c(-c2c(F)cc(O[C@@H]3C[C@H]4CNC[C@H]4C3)cc2F)c(Cl)nc2ncnn12 [Example 40] | 0.17 | 0.69
CC(C)[C@@H](C)Nc1c(-c2c(F)cc(O[C@H]3C[C@@H]4CN(C)C[C@@H]4C3)cc2F)c(Cl)nc2ncnn12 [Example 41, 5-Chloro-6-(2,6-difluoro-4-(((3aR,5s,6aS)-2-methyloctahydrocyclopenta[c]pyrrol-5-yl)oxy)phenyl)-N—((R)-3-methylbutan-2-yl)-[1,2,4]triazolo[1,5-a]pyrimidin-7-amine] | 0.11 | 1.93
C[C@H](Nc1c(-c2c(F)cc(O[C@@H]3C[C@H]4CNC[C@H]4C3)cc2F)c(Cl)nc2ncnn12)C(F)(F)F [Example 42, 5-Chloro-6-(2,6-difluoro-4-(((3aR,5s,6aS)-octahydrocyclopenta[c]pyrrol-5-yl)oxy)phenyl)-N—((S)-1,1,1-trifluoropropan-2-yl)-[1,2,4]triazolo[1,5-a]pyrimidin-7-amine] | 0.25 | 0.73
